Assay results from patent publication US12655160B2, “KRAS G12D inhibitors” (Mirati Therapeutics, Inc., priority 2020, dated 2026).
Where a name gives a salt, the structure may show the parent alone. Read-outs that look alike come from different tables or passages of the source.

Columns and labels:
[1] = system: KRas G12D-mediated Phosphorylation of ERK; test: Inhibition of KRas G12D-mediated Phosphorylation of ERK in AGS cells; format: cell-based; settings: Homo sapiens
Experimental: AGS cells (ATCC CRL-1739) expressing G12D were grown in DMEM medium supplemented with 10% fetal bovine serum, 10 mM HEPES, and Penicillin/Streptomycin. Cells were plated in tissue culture treated 96 well plates at a density of 40,000 cells/well and allowed to attach for 12-14 hours. Diluted compounds were then added in a final concentration of 0.5% DMSO. After 3 hours, the medium was removed, 150 μl of 4.0% formaldehyde was added and the plates incubated at room temperature for 20 minutes. The plates were washed with PBS, and permeabilized with 150 μL of ice cold 100% methanol for 10 minutes. Non-specific antibody binding to the plates was blocked using 100 μL Licor blocking buffer (Li-Cor Biotechnology, Lincoln NE) for 1 hour at room temperature.
The amount of phospho-ERK was determined using an antibody specific for the phosphorylated form of ERK and compared to the amount of GAPDH. Primary antibodies used for the detection were added as follows: Phospho-ERK(Cell Signaling cs-9101) diluted 1:500 and GAPDH (Millipore MAB374) diluted 1:5000 in Licor block+0.05% Tween 20. The plates were incubated for 2 hours at room temperature. The plates were washed with PBS+0.05% Tween 20.
Secondary antibodies used to visualize primary antibodies were added as follows: Anti-rabbit-680 diluted 1:1000 and Anti-mouse-800 diluted 1:1000 both in Licor block+0.05% Tween20, and were incubated for 1 hour at room temperature. The plates were washed with PBS+0.05% Tween 20. A 100 μl aliquot of PBS was added to each well and the plates were read on a Li-Cor Odyssey CLX plate reader.
The phospho-ERK(Thr202/Tyr204 signal was normalized to the GAPDH signal for each well and percent of DMSO control values were calculated. IC50 values were generated using a 4-parameter fit of the dose response curve

KRas G12D [2] = target: T1, KRas G12D (Homo sapiens, UniProt P01116, G12D); test: KRas G12D Surface Plasmon Resonance (SPR) Binding Assay; set-up: Avidin-tag (so in the source); settings: Biacore T200, Biotinylated Avidin-tagged KRAS protein on SA chip, 20 C, 1:1 binding model
Experimental: This Example illustrates that exemplary compounds of the present invention bind to KRas G12D as measured by surface plasmon resonance (SPR). Briefly, 1 L of 1.05×HBS-Mg buffer (262.5 mM BioUltra Hepes, pH 7.5, 157.5 mM NaCl, 105 mM MgCl2, 0.525 mM TCEP, 0.0305% Brij-35) was prepared and filter sterilized using a 0.22 μm bottle top filter. Approximately 50 mL of 1.05×HBS-Mg buffer was removed and saved for future dilutions. A 50 mL aliquot of DMSO (Sigma Aldrich DMSO Lot. #SHBK2079) was added and continued to stir for 10 minutes, creating the final 1.0×HBS-Mg buffer (250 mM BioUltra Hepes pH 7.5, 150 mM NaCl, 100 mM MgCl2, 0.5 mM TCEP, 0.03% Brij-35). Biacore T200 instrument was primed using 1.0×HBS-Mg buffer before docking a GE Streptavidin (SA) chip and then primed two additional times prior to beginning the immobilization step. All immobilized protein mixtures were created using 3-5 mg/mL Biotinylated Avidin-tagged KRAS protein using the following immobilization settings: SA chip type, 1 flow cells per cycle, 720 second contact time, and 5 μL/min flow rate. Normalization of the detector was also performed during the immobilization step using the GE BiaNormalize solution. All compounds were diluted to 10 mM in 100% DMSO prior to being diluted 20× in 1.05× buffer. Another 10λ dilution was created using 1.0× buffer prior to performing a series of 3× dilutions to create a compound concentration curve using the following assay settings: 20 C analysis temperature, General Settings=10 Hz data collection rate and multi-detection; Assay Steps=all set to LMW kinetics; Cycle Types=LMW kinetics (60 s contact time, 120 s dissociation time, 100 μL/min flow rate, extra wash after injection with 50% DMSO, flow path 1,2,3,4); Flow path detection=2-1, 4-3). Data evaluation was performed using the Biacore T200 Evaluation software and data fit to 1:1 binding model.
Target sequence in this assay (P01116 1-188 isoform P01116-2 G12D): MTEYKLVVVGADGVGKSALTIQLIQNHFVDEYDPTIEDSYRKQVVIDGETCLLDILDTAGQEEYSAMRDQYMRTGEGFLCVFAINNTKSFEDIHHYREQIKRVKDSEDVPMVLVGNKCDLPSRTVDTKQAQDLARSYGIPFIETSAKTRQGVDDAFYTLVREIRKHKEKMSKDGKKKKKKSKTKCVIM

KRas G12D [3] = target: T1, KRas G12D; test: KRas G12D Binding Assay (TR-FRET displacement of labeled tracer); set-up: corresponding to amino acids 1:169, produced at Array BioPharma Inc; biotin (biotinylated); settings: TR-FRET displacement of Cy5 labelled tracer, Biotinylated GDP-loaded KRAS G12D (amino acids 1:169), 60 minute incubation at 22° C.
Procedure, shortened: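 Biotinylated GDP-loaded KRAS G12D (aa 1:169) was incubated with Cy5 tracer, Eu-streptavidin and compound (2% DMSO) in HEPES pH 7.5, MgCl2, Tween-20, DTT, 60 min at 22° C. TR-FRET ratio gave POC; IC50 from 4-parameter fit at 50 POC.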
Target sequence in this assay (P01116 1-169 isoform P01116-2 G12D): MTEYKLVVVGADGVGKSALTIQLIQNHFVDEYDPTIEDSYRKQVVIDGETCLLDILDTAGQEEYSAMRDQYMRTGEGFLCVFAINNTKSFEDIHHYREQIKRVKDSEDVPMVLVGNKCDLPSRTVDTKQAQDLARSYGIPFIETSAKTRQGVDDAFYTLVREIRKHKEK

[4] = AGS cells expressing G12D, 3 hours, phospho-ERK signal normalized to GAPDH, read-out: IC50

| Kd (KRas G12D [2]) [nM] | IC50 (KRas G12D [3]) [nM] | Compound | IC50 ([1]; AGS, 3 h) [nM] | IC50 [1, 4] [nM] |
| --- | --- | --- | --- | --- |
| – | 0.7 | CCc1c(F)ccc2cc(O)cc(-c3ncc4c(NCC5(N(C)C)CCC5)nc(OC[C@]56CCCN5[C@@H](COC(=O)N(C)C)CC6)nc4c3F)c12 [Example 46, ((3R,7aR)-7a-(((4-(((1-(dimethylamino)cyclobutyl)methyl)amino)-7-(8-ethyl-7-fluoro-3-hydroxynaphthalen-1-yl)-8-fluoropyrido[4,3-d]pyrimidin-2-yl)oxy)methyl)hexahydro-1H-pyrrolizin-3-yl)methyl dimethylcarbamate] | – | 38.7 |
| – | 89.6 | CN(C)C1(CNc2nc(OC[C@]34CCCN3[C@@H](COC(=O)N3CCCCC3)CC4)nc3c(F)c(-c4cccc5cccc(Cl)c45)ncc23)CCC1 [Example 50, ((3R,7aR)-7a-(((7-(8-chloronaphthalen-1-yl)-4-(((1-(dimethylamino)cyclobutyl)methyl)amino)-8-fluoropyrido[4,3-d]pyrimidin-2-yl)oxy)methyl)hexahydro-1H-pyrrolizin-3-yl)methyl piperidine-1-carboxylate] | – | 10700 |
| – | 102 | CN(C)C(=O)OC[C@H]1CC[C@@]2(COc3nc(NCC4(N(C)C)CCC4)c4cnc(-c5cccc6cccc(Cl)c56)c(F)c4n3)CCCN12 [Example 51, ((3R,7aR)-7a-(((7-(8-chloronaphthalen-1-yl)-4-(((1-(dimethylamino)cyclobutyl)methyl)amino)-8-fluoropyrido[4,3-d]pyrimidin-2-yl)oxy)methyl)hexahydro-1H-pyrrolizin-3-yl)methyl dimethylcarbamate] | – | > 16700 |
| – | 79.3 | CN(C)C1(CNc2nc(OCC34CCCN3CCC4)nc3c(F)c(-c4cccc5cccc(Cl)c45)ncc23)CCC1 [Example 54, 7-(8-chloronaphthalen-1-yl)-N-((1-(dimethylamino)cyclobutyl)methyl)-8-fluoro-2-((tetrahydro-1H-pyrrolizin-7a(5H)-yl)methoxy)pyrido[4,3-d]pyrimidin-4-amine] | – | > 16700 |
| – | 2.6 | C#Cc1c(F)ccc2cccc(-c3ncc4c(NCC5(N(C)C)CCC5)nc(OCC56CCCN5CCC6)nc4c3F)c12 [Example 56, N-((1-(dimethylamino)cyclobutyl)methyl)-7-(8-ethynyl-7-fluoronaphthalen-1-yl)-8-fluoro-2-((hexahydro-1H-pyrrolizin-7a-yl)methoxy)pyrido[4,3-d]pyrimidin-4-amine] | – | 350 |

Further lines, the compound ahead of its results:

| Compound | Kd (KRas G12D [2]) [nM] | IC50 (KRas G12D [3]) [nM] | IC50 ([1]; AGS, 3 h) [nM] | IC50 [1, 4] [nM] |
| --- | --- | --- | --- | --- |
| CN(C)C1(CNc2nc(OC[C@@]34CCCN3C[C@H](F)C4)nc3c(F)c(-c4cc(O)cc5ccccc45)ncc23)CCC1 [Example 1, 4-(4-(((1-(dimethylamino)cyclobutyl)methyl)amino)-8-fluoro-2-(((2R,7aS)-2-fluorotetrahydro-1H-pyrrolizin-7a(5H)-yl)methoxy)pyrido[4,3-d]pyrimidin-7-yl)naphthalen-2-ol] | 14.7 | 19.6 | 692 | – |
| CN(C)C1(CNc2nc(OC[C@@]34CCCN3C[C@H](F)C4)nc3c(F)c(-c4cc(O)cc5ccccc45)ncc23)CCCC1 [Example 7, 4-(4-(((1-(dimethylamino)cyclopentyl)methyl)amino)-8-fluoro-2-(((2R,7aS)-2-fluorotetrahydro-1H-pyrrolizin-7a(5H)-yl)methoxy)pyrido[4,3-d]pyrimidin-7-yl)naphthalen-2-ol bis(2,2,2-trifluoroacetate)] | 12.2 | 10 | – | 711 |
| CC1(CNc2nc(OC[C@@]34CCCN3C[C@H](F)C4)nc3c(F)c(-c4cc(O)cc5ccccc45)ncc23)CNC1 [Example 8, 4-(8-fluoro-2-(((2R,7aS)-2-fluorotetrahydro-1H-pyrrolizin-7a(5H)-yl)methoxy)-4-(((3-methylazetidin-3-yl)methyl)amino)pyrido[4,3-d]pyrimidin-7-yl)naphthalen-2-ol] | 66.8 | 39.9 | – | > 16700 |
| CN(CC1(N(C)C)CCC1)c1nc(OC[C@@]23CCCN2C[C@H](F)C3)nc2c(F)c(-c3cc(O)cc4cccc(Cl)c34)ncc12 [Example 36, 5-chloro-4-(4-(((1-(dimethylamino)cyclobutyl)methyl)(methyl)amino)-8-fluoro-2-(((2R,7aS)-2-fluorotetrahydro-1H-pyrrolizin-7a(5H)-yl)methoxy)pyrido[4,3-d]pyrimidin-7-yl)naphthalen-2-ol dihydrochloride] | 135 | 76.5 | – | 3290 |
| C#Cc1cccc2cc(O)cc(-c3ncc4c(NCC5(N(C)C)CCC5)nc(OC[C@@]56CCCN5C[C@H](F)C6)nc4c3F)c12 [Example 52, 4-(4-(((1-(dimethylamino)cyclobutyl)methyl)amino)-8-fluoro-2-(((2R,7aS)-2-fluorotetrahydro-1H-pyrrolizin-7a(5H)-yl)methoxy)pyrido[4,3-d]pyrimidin-7-yl)-5-ethynylnaphthalen-2-ol] | 0.04 | 0.6 | 12 | – |
